From patent US20250114338A1, “TETRAHYDRO-PYRIDO[3,4-b]INDOLE ESTROGEN RECEPTOR MODULATORS AND USES THEREOF” (Genentech, Inc., priority 2014, published 2025) come the findings set out here.

The assay deals with ER-alpha MCF7. The experiment in a line: ER-alpha MCF7 HCS EC50; stated as measured by in vitro cell proliferation assays of Examples 902 and 903. Type of assay: cell-based. Particulars: Homo sapiens, MCF7, MCF7 cells; Table 2. The method, boiled down:
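MCF7 cells seeded 1000-2000 cells/well for 16 h, then treated with nine-point 1:2 DMSO dilution series in quadruplicate at 37 °C, 5% CO2 for 4 days. Viable cells quantified by CellTiter-Glo ATP luminescence; EC50 calculated. Controls: fulvestrant at final 100 nM, DMSO 0.2% v/v.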
As to `C[C@@H]1Cc2c([nH]c3ccccc23)[C@@H](c2ccc(NCCN3CC(CF)C3)cc2)N1S(C)(=O)=O` [Example 325, N-[2-[3-(fluoromethyl)azetidin-1-yl]ethyl]-4-[(1R,3R)-3-methyl-2-methylsulfonyl-1,3,4,9-tetrahydropyrido[3,4-b]indol-1-yl]aniline], the EC50 is 1 nM.
As to `C[C@@H]1Cc2c([nH]c3ccccc23)[C@@H](c2c(F)cc(OC3CN(CCCF)C3)cc2F)N1CC1(C)COC1` [Example 246, (1R,3R)-1-[2,6-difluoro-4-[1-(3-fluoropropyl)azetidin-3-yl]oxy-phenyl]-3-methyl-2-[(3-methyloxetan-3-yl)methyl]-1,3,4,9-tetrahydropyrido[3,4-b]indole], the half-maximal effective concentration (EC50) worked out at 0.358 nM.
As for `C[C@@H]1Cc2c([nH]c3ccccc23)[C@@H](c2cc(F)c(OC3CN(CCCF)C3)c(F)c2)N1CC(C)(C)F` [Example 336, (1R,3R)-1-[3,5-difluoro-4-[1-(3-fluoropropyl)azetidin-3-yl]oxy-phenyl]-2-(2-fluoro-2-methyl-propyl)-3-methyl-1,3,4,9-tetrahydropyrido[3,4-b]indole], the figure is 0.263 nM.
As for `C[C@@H]1Cc2c([nH]c3ccc(F)cc23)[C@@H](c2c(F)cc(OCCN3CC(CF)C3)cc2F)N1CC(F)F` [Example 383, (1R,3R)-1-(2,6-difluoro-4-(2-(3-(fluoromethyl)azetidin-1-yl)ethoxy)phenyl)-2-(2,2-difluoroethyl)-6-fluoro-3-methyl-2,3,4,9-tetrahydro-1H-pyrido[3,4-b]indole], the figure is 0.28 nM; as for `C[C@@H]1Cc2c([nH]c3c(F)cccc23)[C@@H](c2c(F)cc(NC3CN(CCCF)C3)cc2F)N1CC(F)(F)CO` [Example 423, 3-((1R,3R)-1-(2,6-difluoro-4-((1-(3-fluoropropyl)azetidin-3-yl)amino)phenyl)-8-fluoro-3-methyl-3,4-dihydro-1H-pyrido[3,4-b]indol-2(9H)-yl)-2,2-difluoropropan-1-ol], 0.089 nM.
On to `C[C@H]1Cc2c([nH]c3c(F)cccc23)[C@H](c2c(F)cc(OCCN3CC(CF)C3)cc2F)N1CC(C)(C)F` [Example 262, (1S,3S)-1-(2,6-difluoro-4-(2-(3-(fluoromethyl)azetidin-1-yl)ethoxy)phenyl)-8-fluoro-2-(2-fluoro-2-methylpropyl)-3-methyl-2,3,4,9-tetrahydro-1H-pyrido[3,4-b]indole], for which the EC50 turned out to be 26 nM.
Under `C[C@H]1Cc2c([nH]c3ccc(F)cc23)[C@H](c2c(F)cc(OC3CN(CCCF)C3)cc2F)N1CC(F)(F)CO` [Example 364, 3-((1S,3S)-1-(2,6-difluoro-4-((1-(3-fluoropropyl)azetidin-3-yl)oxy)phenyl)-6-fluoro-3-methyl-1,3,4,9-tetrahydro-2H-pyrido[3,4-b]indol-2-yl)-2,2-difluoropropan-1-ol] stands 9 nM; under `C[C@H](CN1[C@H](c2c(F)cc(OCCN3CC(CF)C3)cc2F)c2[nH]c3ccccc3c2C[C@H]1C)C(N)=O` [Example 347, (R)-3-((1R,3R)-1-(2,6-difluoro-4-(2-(3-(fluoromethyl)azetidin-1-yl)ethoxy)phenyl)-3-methyl-1,3,4,9-tetrahydro-2H-pyrido[3,4-b]indol-2-yl)-2-methylpropanamide], 14 nM.
Under `C[C@H]1Cc2c([nH]c3cccc(F)c23)[C@H](c2c(F)cc(OCCN3CC(CF)C3)cc2F)N1CC(C)(C)F` [Example 251, (1S,3S)-1-(2,6-difluoro-4-(2-(3-(fluoromethyl)azetidin-1-yl)ethoxy)phenyl)-5-fluoro-2-(2-fluoro-2-methylpropyl)-3-methyl-2,3,4,9-tetrahydro-1H-pyrido[3,4-b]indole] stands 21 nM; under `C[C@@H]1Cc2c([nH]c3ccccc23)[C@@H](c2c(F)cc(OCCN3CC(CF)C3)cc2F)N1CC1CC1` [Example 186, (1R,3R)-2-(cyclopropylmethyl)-1-[2,6-difluoro-4-[2-[3-(fluoromethyl)azetidin-1-yl]ethoxy]phenyl]-3-methyl-1,3,4,9-tetrahydropyrido[3,4-b]indole], 2 nM.
Under `CNS(=O)(=O)N1[C@H](c2ccc(OCCN3CC(CF)C3)cc2)c2[nH]c3ccccc3c2C[C@H]1C` [Example 313, (1R,3R)-1-[4-[2-[3-(fluoromethyl)azetidin-1-yl]ethoxy]phenyl]-N,3-dimethyl-1,3,4,9-tetrahydropyrido[3,4-b]indole-2-sulfonamide] stands 1 nM; under `C[C@@H]1Cc2c([nH]c3ccccc23)[C@@H](c2ccc(OCCN3CC(CF)C3)cc2F)N1C[C@@](C)(F)CO` [Example 273, (R)-2-fluoro-3-((1R,3R)-1-(2-fluoro-4-(2-(3-(fluoromethyl)azetidin-1-yl)ethoxy)phenyl)-3-methyl-1,3,4,9-tetrahydro-2H-pyrido[3,4-b]indol-2-yl)-2-methylpropan-1-ol], 0.28 nM; under `C[C@@H]1Cc2c([nH]c3ccccc23)[C@@H](c2c(F)cc(/C=C/CN3CC(CF)C3)cc2F)N1CC(C)(C)F` [Example 144, (1R,3R)-1-[2,6-difluoro-4-[(E)-3-[3-(fluoromethyl)azetidin-1-yl]prop-1-enyl]phenyl]-2-(2-fluoro-2-methyl-propyl)-3-methyl-1,3,4,9-tetrahydropyrido[3,4-b]indole], 0.144 nM.
On to `C[C@@H]1Cc2c([nH]c3ccccc23)[C@@H](c2c(F)cc(OCCN3CC(CF)C3)cc2F)N1CC(C)(F)CO` (stereo partly drawn) [Example 255, 3-((1R,3R)-1-(2,6-difluoro-4-(2-(3-(fluoromethyl)azetidin-1-yl)ethoxy)phenyl)-3-methyl-1,3,4,9-tetrahydro-2H-pyrido[3,4-b]indol-2-yl)-2-fluoro-2-methylpropan-1-ol], for which the concentration giving a half-maximal response (EC50) came to 0.01 nM.
Under `CCCC(C)N1CC(Oc2cc(F)c([C@@H]3c4[nH]c5ccccc5c4C[C@@H](C)N3CC(C)(C)F)c(F)c2)C1` (stereo partly drawn) [Example 192, (1R,3R)-1-(2,6-difluoro-4-((1-(pentan-2-yl)azetidin-3-yl)oxy)phenyl)-2-(2-fluoro-2-methylpropyl)-3-methyl-2,3,4,9-tetrahydro-1H-pyrido[3,4-b]indole] stands 1 nM; under `C[C@@H]1Cc2c([nH]c3ccccc23)[C@@H](c2c(F)cc(OCCN3CC(CF)C3)cc2F)N1C[C@@H](O)CO` [Example 268, (2R)-3-[(1R,3R)-1-[2,6-difluoro-4-[2-[3-(fluoromethyl)azetidin-1-yl]ethoxy]phenyl]-3-methyl-1,3,4,9-tetrahydropyrido[3,4-b]indol-2-yl]propane-1,2-diol], 8 nM.
Under `C[C@@H]1Cc2c([nH]c3ccccc23)[C@@H](c2ccc(OCCN3CC(CF)C3)cc2F)N1CC(C)(C)F` [Example 133, (1R,3R)-2-(2-fluoro-2-methylpropyl)-1-(2-fluoro-4-(2-(3-(fluoromethyl)azetidin-1-yl)ethoxy)phenyl)-3-methyl-2,3,4,9-tetrahydro-1H-pyrido[3,4-b]indole] stands 0.0562 nM; under `C[C@H]1Cc2c([nH]c3ccc(F)cc23)[C@H](c2c(F)cc(OCCN3CC(CF)C3)cc2F)N1CC(C)(C)F` [Example 245, (1S,3S)-1-(2,6-difluoro-4-(2-(3-(fluoromethyl)azetidin-1-yl)ethoxy)phenyl)-6-fluoro-2-(2-fluoro-2-methylpropyl)-3-methyl-2,3,4,9-tetrahydro-1H-pyrido[3,4-b]indole], 35 nM.
Turning to `C[C@@H]1Cc2c([nH]c3cc(F)ccc23)[C@@H](c2c(F)cc(NC3CN(CCCF)C3)cc2F)N1CC(F)(F)CO` [Example 425, 3-((1R,3R)-1-(2,6-difluoro-4-((1-(3-fluoropropyl)azetidin-3-yl)amino)phenyl)-7-fluoro-3-methyl-3,4-dihydro-1H-pyrido[3,4-b]indol-2(9H)-yl)-2,2-difluoropropan-1-ol], the EC50 was determined as 0.021 nM.
Under `C[C@@H]1Cc2c([nH]c3ccccc23)[C@H](c2c(F)cc(NC3CN(CCCF)C3)cc2F)N1S(C)(=O)=O` [Example 315, N-[3,5-difluoro-4-[(1S,3R)-3-methyl-2-methylsulfonyl-1,3,4,9-tetrahydropyrido[3,4-b]indol-1-yl]phenyl]-1-(3-fluoropropyl)azetidin-3-amine] stands 2 nM; under `C[C@@H]1Cc2c([nH]c3ccccc23)[C@@H](c2c(F)cc(OCCN3CC(CF)C3)cc2F)N1C(=O)C1CC(F)C1` (stereo in doubt) [Example 203, [1-[2,6-difluoro-4-[2-[3-(fluoromethyl)azetidin-1-yl]ethoxy]phenyl]-3-methyl-1,3,4,9-tetrahydropyrido[3,4-b]indol-2-yl]-(3-fluorocyclobutyl)methanone], 4 nM; under `C[C@@H]1Cc2c([nH]c3ccccc23)[C@@H](c2c(F)cc(OCCN3CC(CF)C3)cc2F)N1C(=O)C1CC1` [Example 139, cyclopropyl((1R,3R)-1-(2,6-difluoro-4-(2-(3-(fluoromethyl)azetidin-1-yl)ethoxy)phenyl)-3-methyl-3,4-dihydro-1H-pyrido[3,4-b]indol-2(9H)-yl)methanone], 2.48 nM.
As for `C[C@@H]1Cc2c([nH]c3ccccc23)[C@@H](c2ccc(NC3CN(CCCF)C3)cc2)N1C[C@@](C)(F)CO` [Example 292, (R)-2-fluoro-3-((1R,3R)-1-(4-((1-(3-fluoropropyl)azetidin-3-yl)amino)phenyl)-3-methyl-1,3,4,9-tetrahydro-2H-pyrido[3,4-b]indol-2-yl)-2-methylpropan-1-ol], the figure is 2 nM.
As for `CC(C)(F)CN1[C@@H](c2c(F)cc(OCCN3CC(CF)C3)cc2F)c2[nH]c3ccccc3c2CC1(C)C` [Example 258, (S)-1-(2,6-difluoro-4-(2-(3-(fluoromethyl)azetidin-1-yl)ethoxy)phenyl)-2-(2-fluoro-2-methylpropyl)-3,3-dimethyl-2,3,4,9-tetrahydro-1H-pyrido[3,4-b]indole], the figure is 31 nM; as for `C[C@@H]1Cc2c([nH]c3ccccc23)[C@@H](c2c(F)cc(OC3CN(C4COC4)C3)cc2F)N1CC(C)(C)F` [Example 194, (1R,3R)-1-[2,6-difluoro-4-[1-(oxetan-3-yl)azetidin-3-yl]oxy-phenyl]-2-(2-fluoro-2-methyl-propyl)-3-methyl-1,3,4,9-tetrahydropyrido[3,4-b]indole], 0.077 nM.

Broadly, the EC50 is the concentration at which the effect is half-maximal.
